Drawing on patent US20240262819A1, “NOVEL COMPOUNDS HAVING INHIBITORY ACTIVITY AGAINST GLUCOSYLCERAMIDE SYNTHASE OR PHARMACEUTICALLY ACCEPTABLE SALT THEREOF, PROCESSES FOR PREPARING THE SAME, AND PHARMACEUTICAL COMPOSITIONS COMPRISING THE SAME” (YUHAN CORPORATION, priority 2021, published 2024), this text covers IC50, Kp and concentration for 28 compounds.

Where “and” joins values, the source holds several entries; their conditions need not be identical. Identical values can stand only once.

For one series, the system named is GM1 production in Jurkat cells. The experiment in a line: cells. The class given is cell-based. The note with it: Homo sapiens, Jurkat, 72 h.
For orientation: IC50 means the concentration needed to halve the response being measured. Turning to `CCc1cccc(-c2ccc3c(c2)CC(C)(C)[C@H]3NC(=O)O[C@@H]2CN3CCC2CC3)c1` [Example 1, (S)-quinuclidin-3-yl((R)-5-(3-ethylphenyl)-2,2-dimethyl-2,3-dihydro-1H-inden-1-yl)carbamate], half-maximal inhibition (IC50) required 4.53 nM.

`CC(C)c1cccc(-c2ccc3c(c2)CC(C)(C)[C@H]3NC(=O)O[C@@H]2CN3CCC2CC3)c1` [Example 2, (S)-quinuclidin-3-yl((R)-5-(3-isopropylphenyl)-2,2-dimethyl-2,3-dihydro-1H-inden-1-yl)carbamate] had a half-inhibitory concentration (IC50) of 3.75 nM.

`CCCCc1ccc(-c2ccc3c(c2)CC(C)(C)[C@H]3NC(=O)O[C@@H]2CN3CCC2CC3)cc1` [Example 3, (S)-quinuclidin-3-yl((R)-5-(4-butylphenyl)-2,2-dimethyl-2,3-dihydro-1H-inden-1-yl)carbamate] came in with a 50% inhibitory concentration (IC50) of 1.24 nM. On to `CCCc1ccc(-c2ccc3c(c2)CC(C)(C)[C@H]3NC(=O)O[C@@H]2CN3CCC2CC3)cc1` [Example 4, (S)-quinuclidin-3-yl((R)-2,2-dimethyl-5-(4-propylphenyl)-2,3-dihydro-1H-inden-1-yl)carbamate], for which the IC50 turned out to be 3.74 nM. For the compound `CC(C)Cc1ccc(-c2ccc3c(c2)CC(C)(C)[C@H]3NC(=O)O[C@@H]2CN3CCC2CC3)cc1` [Example 5, (S)-quinuclidin-3-yl((R)-5-(4-isobutylphenyl)-2,2-dimethyl-2,3-dihydro-1H-inden-1-yl)carbamate], the IC50 was found to be 4.14 nM. The compound `CC(C)(C)c1ccc(-c2ccc3c(c2)CC(C)(C)[C@H]3NC(=O)O[C@@H]2CN3CCC2CC3)cc1` [Example 6, (S)-quinuclidin-3-yl((R)-5-(4-(tert-butyl)phenyl)-2,2-dimethyl-2,3-dihydro-1H-inden-1-yl)carbamate] came in with an IC50 of 9.97 nM.

`CCOc1ccc(-c2ccc3c(c2)CC(C)(C)[C@H]3NC(=O)O[C@@H]2CN3CCC2CC3)cc1` [Example 7, (S)-quinuclidin-3-yl((R)-5-(4-ethoxyphenyl)-2,2-dimethyl-2,3-dihydro-1H-inden-1-yl)carbamate] displayed an IC50 of 13.7 nM. Regarding `CC(C)COc1ccc(-c2ccc3c(c2)CC(C)(C)[C@H]3NC(=O)O[C@@H]2CN3CCC2CC3)cc1` [Example 8, (S)-quinuclidin-3-yl((R)-5-(4-isobutoxyphenyl)-2,2-dimethyl-2,3-dihydro-1H-inden-1-yl)carbamate], the concentration for half-maximal inhibition (IC50) was determined as 1.09 nM.

On to `CCCOc1c(C)cc(-c2ccc3c(c2)CC(C)(C)[C@H]3NC(=O)O[C@@H]2CN3CCC2CC3)cc1C` [Example 9, (S)-quinuclidin-3-yl((R)-5-(3,5-dimethyl-4-propoxyphenyl)-2,2-dimethyl-2,3-dihydro-1H-inden-1-yl)carbamate], for which it took 22.1 nM to reach half-maximal inhibition (IC50).

On to `CC1(C)Cc2cc(-c3ccc(OCC4CC4)nc3)ccc2[C@@H]1NC(=O)O[C@@H]1CN2CCC1CC2` [Example 13, (S)-quinuclidin-3-yl((R)-5-(6-(cyclopropylmethoxy)pyridin-3-yl)-2,2-dimethyl-2,3-dihydro-1H-inden-1-yl)carbamate], for which half-maximal inhibition (IC50) required 4.15 nM. In the case of `CCCCOc1ccc(-c2ccc3c(c2)CC(C)(C)[C@H]3NC(=O)O[C@@H]2CN3CCC2CC3)cc1Cl` [Example 17, (S)-quinuclidin-3-yl((R)-5-(4-butoxy-3-chlorophenyl)-2,2-dimethyl-2,3-dihydro-1H-inden-1-yl)carbamate], the IC50 turned out to be 20.6 nM.

With `CCOc1ccc(-c2ccc3c(c2)CC(C)(C)[C@H]3NC(=O)O[C@@H]2CN3CCC2CC3)cc1F` [Example 19, (S)-quinuclidin-3-yl((R)-5-(4-ethoxy-3-fluorophenyl)-2,2-dimethyl-2,3-dihydro-1H-inden-1-yl)carbamate], 56 nM corresponded to half-maximal inhibition (IC50).

For the compound `CCOc1ccc(-c2cc3c(cc2F)[C@H](NC(=O)O[C@@H]2CN4CCC2CC4)C(C)(C)C3)cc1` [Example 56, (S)-quinuclidin-3-yl((R)-5-(4-ethoxyphenyl)-6-fluoro-2,2-dimethyl-2,3-dihydro-1H-inden-1-yl)carbamate], the 50% inhibitory concentration (IC50) was found to be 10.7 nM. `CCc1ccc(-c2cc3c(cc2F)[C@H](NC(=O)O[C@@H]2CN4CCC2CC4)C(C)(C)C3)cc1` [Example 58, (S)-quinuclidin-3-yl((R)-5-(4-ethylphenyl)-6-fluoro-2,2-dimethyl-2,3-dihydro-1H-inden-1-yl)carbamate] showed a half-inhibitory concentration (IC50) of 5.74 nM.

Take `CCCCc1ccc(-c2cc3c(cc2F)[C@H](NC(=O)O[C@@H]2CN4CCC2CC4)C(C)(C)C3)cc1` [Example 60, (S)-quinuclidin-3-yl((R)-5-(4-butylphenyl)-6-fluoro-2,2-dimethyl-2,3-dihydro-1H-inden-1-yl)carbamate]: the IC50 was 1 nM.

The compound `CCCCOc1ccc(-c2cc3c(cc2F)[C@H](NC(=O)O[C@@H]2CN4CCC2CC4)C(C)(C)C3)cc1` [Example 70, (S)-quinuclidin-3-yl((R)-5-(4-butoxyphenyl)-6-fluoro-2,2-dimethyl-2,3-dihydro-1H-inden-1-yl)carbamate] showed a half-maximal inhibitory concentration (IC50) of 0.6 nM. Same read-out and setting: to `CCc1cccc(-c2cc3c(cc2F)[C@H](NC(=O)O[C@@H]2CN4CCC2CC4)C(C)(C)C3)c1` [Example 71, (S)-quinuclidin-3-yl((R)-5-(3-ethylphenyl)-6-fluoro-2,2-dimethyl-2,3-dihydro-1H-inden-1-yl)carbamate] belongs 12.7 nM; to `CC(C)c1cccc(-c2cc3c(cc2F)[C@H](NC(=O)O[C@@H]2CN4CCC2CC4)C(C)(C)C3)c1` [Example 73, (S)-quinuclidin-3-yl((R)-6-fluoro-5-(3-isopropylphenyl)-2,2-dimethyl-2,3-dihydro-1H-inden-1-yl)carbamate], 10.8 nM. Turning to `CC(C)Cc1cccc(-c2cc3c(cc2F)[C@H](NC(=O)O[C@@H]2CN4CCC2CC4)C(C)(C)C3)c1` [Example 74, (S)-quinuclidin-3-yl((R)-6-fluoro-5-(3-isobutylphenyl)-2,2-dimethyl-2,3-dihydro-1H-inden-1-yl)carbamate], inhibition was half-maximal at 19.4 nM (IC50). As to `COc1cccc(-c2cc3c(cc2F)[C@H](NC(=O)O[C@@H]2CN4CCC2CC4)C(C)(C)C3)c1` [Example 75, (S)-quinuclidin-3-yl((R)-6-fluoro-5-(3-methoxyphenyl)-2,2-dimethyl-2,3-dihydro-1H-inden-1-yl)carbamate], the IC50 was 14.8 nM.

Turning to `CCOc1cccc(-c2cc3c(cc2F)[C@H](NC(=O)O[C@@H]2CN4CCC2CC4)C(C)(C)C3)c1` [Example 76, (S)-quinuclidin-3-yl((R)-5-(3-ethoxyphenyl)-6-fluoro-2,2-dimethyl-2,3-dihydro-1H-inden-1-yl)carbamate], half-maximal inhibition (IC50) was put at 33.4 nM. `CCCOc1cccc(-c2cc3c(cc2F)[C@H](NC(=O)O[C@@H]2CN4CCC2CC4)C(C)(C)C3)c1` [Example 77, (S)-quinuclidin-3-yl((R)-6-fluoro-2,2-dimethyl-5-(3-propoxyphenyl)-2,3-dihydro-1H-inden-1-yl)carbamate] gave an IC50 of 23.7 nM.

In turn, `CC(C)COc1cccc(-c2cc3c(cc2F)[C@H](NC(=O)O[C@@H]2CN4CCC2CC4)C(C)(C)C3)c1` [Example 78, (S)-quinuclidin-3-yl((R)-6-fluoro-5-(3-isobutoxyphenyl)-2,2-dimethyl-2,3-dihydro-1H-inden-1-yl)carbamate] yielded an IC50 of 17.6 nM. Regarding `CCCCOc1cccc(-c2cc3c(cc2F)[C@H](NC(=O)O[C@@H]2CN4CCC2CC4)C(C)(C)C3)c1` [Example 79, (S)-quinuclidin-3-yl((R)-5-(3-butoxyphenyl)-6-fluoro-2,2-dimethyl-2,3-dihydro-1H-inden-1-yl)carbamate], inhibition was half-maximal at 6 nM (IC50).

`CCOc1c(C)cc(-c2cc3c(cc2F)[C@H](NC(=O)O[C@@H]2CN4CCC2CC4)C(C)(C)C3)cc1C` [Example 80, (S)-quinuclidin-3-yl((R)-5-(4-ethoxy-3,5-dimethylphenyl)-6-fluoro-2,2-dimethyl-2,3-dihydro-1H-inden-1-yl)carbamate] showed a concentration for half-maximal inhibition (IC50) of 51 nM. Regarding `CC(C)Oc1cccc(-c2cc3c(cc2F)[C@H](NC(=O)O[C@@H]2CN4CCC2CC4)C(C)(C)C3)c1` [Example 81, (S)-quinuclidin-3-yl((R)-6-fluoro-5-(3-isopropoxyphenyl)-2,2-dimethyl-2,3-dihydro-1H-inden-1-yl)carbamate], the IC50 was 18.7 nM.

The series is the same for the next values; noted with them: read-out: IC50.
On to `COc1ccc(-c2ccc3c(c2)CC(C)(C)[C@H]3NC(=O)O[C@@H]2CN3CCC2CC3)c(F)c1` [Example 12, (S)-quinuclidin-3-yl((R)-5-(2-fluoro-4-methoxyphenyl)-2,2-dimethyl-2,3-dihydro-1H-inden-1-yl) carbamate], for which the IC50 is 5.94 nM.

Tested on in the next series: not listed separately
The series can be described thus: Evaluation of blood-brain barrier (BBB) permeability through oral administration. The note with it: mouse, in vivo, po, 30 mg/kg. The class given is in vivo, mice. How it is done: The blood-brain barrier (BBB) permeability was evaluated in mice, with respect to the compounds according to the present invention and the control (ibiglustat). Each compound of the present invention and the control were suspended in 0.5% methyl cellulose containing 0.2% Tween 80 and then orally administered to mice at a dose of 10 or 30 mg/10 ml/kg. After the whole blood was collected from the heart of each mouse at the time of 4 hours after the administration, it was placed in a lithium heparin tube and immediately centrifuged to obtain the plasma. After the exsanguination was carried out through abdominal vena cava incision, the forebrain was taken by dissection of the head. Both of the forebrain and the plasma were stored in a −80° C. freezer until the analysis of drug concentrations therein. For the analysis of drug concentrations therein, the forebrain was immersed in distilled water and then homogenized with a homogenizer to obtain a homogenate. Each plasma and homogenate was treated with acetonitrile to precipitate proteins, vortexed for 15 seconds, and then centrifuged (12700 rpm, 10 min, 4° C.). The obtained supernatant was diluted with an 80% aqueous solution of acetonitrile containing 0.1% formic acid and then analyzed with an LC-MS/MS instrument. LC-MS/MS analysis was carried out with a reversed-phase column, using distilled water containing 0.1% formic acid and acetonitrile as mobile phases. Each eluted material was detected through a mass spectrometer to calculate the drug concentrations thereof. The brain-plasma drug ratio (B/P ratio) was calculated from the drug concentrations in each tissue to evaluate the blood-brain barrier (BBB) permeability.
Consider `CC(C)(NC(=O)O[C@@H]1CN2CCC1CC2)c1csc(-c2ccc(F)cc2)n1` [Control, Ibiglustat, reference compound], for which the Kp at 4 h came out at 0.501; the concentration at 4 h was 2640 ng/mL and 1320 ng/g.

Still in this series, the particulars now being: mouse, in vivo; mice, oral, dose 30 mg/kg, 4 hr; read-out: Mean brain-plasma drug ratio at 4 hr.
Take `CCCOc1c(C)cc(-c2ccc3c(c2)CC(C)(C)[C@H]3NC(=O)O[C@@H]2CN3CCC2CC3)cc1C` [Example 9, (S)-quinuclidin-3-yl((R)-5-(3,5-dimethyl-4-propoxyphenyl)-2,2-dimethyl-2,3-dihydro-1H-inden-1-yl)carbamate]: the Kp at 4 h stood at 6.84.

The series is the same for the next values; noted with them: mouse, in vivo; mice, oral, dose 30 mg/kg, 4 hr; read-out: Mean drug concentrations in brain tissue at 4 hr.
Consider `CCCOc1c(C)cc(-c2ccc3c(c2)CC(C)(C)[C@H]3NC(=O)O[C@@H]2CN3CCC2CC3)cc1C` [Example 9, (S)-quinuclidin-3-yl((R)-5-(3,5-dimethyl-4-propoxyphenyl)-2,2-dimethyl-2,3-dihydro-1H-inden-1-yl)carbamate], for which the concentration at 4 h was determined as 2750 ng/g.

Still in this series, the particulars now being: mouse, in vivo; mice, oral, dose 30 mg/kg, 4 hr; read-out: Mean drug concentrations in plasma at 4 hr.
Turning to `CCCOc1c(C)cc(-c2ccc3c(c2)CC(C)(C)[C@H]3NC(=O)O[C@@H]2CN3CCC2CC3)cc1C` [Example 9, (S)-quinuclidin-3-yl((R)-5-(3,5-dimethyl-4-propoxyphenyl)-2,2-dimethyl-2,3-dihydro-1H-inden-1-yl)carbamate], the concentration at 4 h turned out to be 403 ng/mL.
